Like-named read-outs stand apart in the source and are kept apart here.
Molecular target: T1, human M2 receptor (Homo sapiens, UniProt P08172)
T1 sequence (P08172 1-466): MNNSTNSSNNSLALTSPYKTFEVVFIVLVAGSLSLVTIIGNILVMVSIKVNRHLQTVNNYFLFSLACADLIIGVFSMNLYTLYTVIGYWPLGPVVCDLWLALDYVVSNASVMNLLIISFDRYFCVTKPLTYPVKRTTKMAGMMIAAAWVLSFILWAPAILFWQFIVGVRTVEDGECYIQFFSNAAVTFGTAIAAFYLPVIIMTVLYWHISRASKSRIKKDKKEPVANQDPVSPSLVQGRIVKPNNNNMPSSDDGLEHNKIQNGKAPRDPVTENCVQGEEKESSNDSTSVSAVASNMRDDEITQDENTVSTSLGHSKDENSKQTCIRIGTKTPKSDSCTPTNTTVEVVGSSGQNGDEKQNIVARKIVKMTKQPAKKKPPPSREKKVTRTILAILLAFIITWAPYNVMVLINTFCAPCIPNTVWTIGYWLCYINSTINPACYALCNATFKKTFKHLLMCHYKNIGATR
Conditions: for EC50: Receptor activity EC50, allosteric potency at EC20 acetylcholine, in some cases mean of two or more determinations

[1] = read-out: Efficiency, boosting of the acetylcholine effect at EC20 acetylcholine concentration, M2-GIRK1/4 reporter cells

Row | SMILES | EC50 (M2-GIRK1/4 reporter cells) [nM] | Emax [1] [%] | Emax (read-out: Efficiency) [%]
1 | CC[C@H](NC(=O)c1cn(-c2c(F)cc(F)cc2F)c2nc(N3CC4CC4(O)C3)ccc2c1=O)C(F)(F)F (mixture of isomers) [Example 416, 7-[1-Hydroxy-3-azabicyclo[3.1.0]hex-3-yl]-4-oxo-N-[(2S)-1,1,1-trifluorobutan-2-yl]-1-(2,4,6-trifluorophenyl)-1,4-dihydro-1,8-naphthyridine-3-carboxamide] | 8 |  | 92
2 | CC[C@H](NC(=O)c1cn(-c2c(F)cccc2F)c2nc(N3CC4CC4(O)C3)ccc2c1=O)C(F)(F)F (mixture of isomers) [Example 417, 1-(2,6-Difluorophenyl)-7-[1-hydroxy-3-azabicyclo[3.1.0]hex-3-yl]-4-oxo-N-[(2S)-1,1,1-trifluorobutan-2-yl]-1,4-dihydro-1,8-naphthyridine-3-carboxamide] | 24 | 100 | 
3 | CC[C@@H](NC(=O)c1cn(-c2ccc(F)cc2F)c2nc(N3C(=O)CCC3C)ccc2c1=O)C(F)(F)F (mixture of isomers) [Example 426, 1-(2,4-Difluorophenyl)-7-[2-methyl-5-oxopyrrolidin-1-yl]-4-oxo-N-[(2R)-1,1,1-trifluorobutan-2-yl]-1,4-dihydro-1,8-naphthyridine-3-carboxamide] | 48 | 92 | 
4 | CC1CC(=O)N(c2ccc3c(=O)c(C(=O)N[C@@H](C4CC4)C(F)(F)F)cn(-c4c(F)cc(F)cc4Cl)c3n2)C1 (mixture of isomers) [Example 429, 1-(2-Chloro-4,6-difluorophenyl)-N-[(1 S)-1-cyclopropyl-2,2,2-trifluoroethyl]-7-[4-methyl-2-oxopyrrolidin-1-yl]-4-oxo-1,4-dihydro-1,8-naphthyridine-3-carboxamide] | 16 | 99 | 
5 | CC1CN(c2ccc3c(=O)c(C(=O)N[C@@H](C4CC4)C(F)(F)F)cn(-c4c(F)cc(F)cc4F)c3n2)C(=O)O1 (mixture of isomers) [Example 436, N-[(1 S)-1-Cyclopropyl-2,2,2-trifluoroethyl]-7-[5-methyl-2-oxo-1,3-oxazolidin-3-yl]-4-oxo-1-(2,4,6-trifluorophenyl)-1,4-dihydro-1,8-naphthyridine-3-carboxamide] | 81 | 94 | 
6 | CCC(COC(F)(F)F)NC(=O)c1cn(-c2c(F)cc(F)cc2F)c2nc(N3C[C@@H](C)NC3=O)ccc2c1=O (mixture of isomers) [Example 453, 7-[(4R)-4-Methyl-2-oxoimidazolidin-1-yl]-4-oxo-N-[(2S)-1-(trifluoromethoxy)butan-2-yl]-1-(2,4,6-trifluorophenyl)-1,4-dihydro-1,8-naphthyridine-3-carboxamide] | 11 | 98.5 | 
7 | CC(NC(=O)c1cn(-c2c(F)cc(F)cc2F)c2nc(N3C[C@@H](C)NC3=O)ccc2c1=O)C(F)(F)C(F)(F)F (mixture of isomers) [Example 458, 7-[(4R)-4-Methyl-2-oxoimidazolidin-1-yl]-4-oxo-N-[3,3,4,4,4-pentafluorobutan-2-yl]-1-(2,4,6-trifluorophenyl)-1,4-dihydro-1,8-naphthyridine-3-carboxamide] | 3 | 100 | 
8 | O=C(N[C@@H](C1CC1)C(F)(F)F)c1cn(-c2c(F)cc(F)cc2F)c2nc(N3CCOC(CO)C3)ccc2c1=O (mixture of isomers) [Example 463, N-[(1 S)-1-Cyclopropyl-2,2,2-trifluoroethyl]-7-[2-(hydroxymethyl)morpholin-4-yl]-4-oxo-1-(2,4,6-trifluorophenyl)-1,4-dihydro-1,8-naphthyridine-3-carboxamide] | 54 | 89 | 
9 | O=C(NC(C1CCC1)C(F)(F)F)c1cn(-c2c(F)cc(F)cc2F)c2nc(N3C[C@@H](O)CC3=O)ccc2c1=O (mixture of isomers) [Example 505, N-[1-Cyclobutyl-2,2,2-trifluoroethyl]-7-[(4S)-4-hydroxy-2-oxopyrrolidin-1-yl]-4-oxo-1-(2,4,6-trifluorophenyl)-1,4-dihydro-1,8-naphthyridine-3-carboxamide] | 6 | 100 | 
10 | CC(NC(=O)c1cn(-c2c(F)cc(F)cc2F)c2nc(N3C[C@@H](O)CC3=O)ccc2c1=O)(C1CC1)C(F)(F)F (mixture of isomers) [Example 508, N-[2-Cyclopropyl-1,1,1-trifluoropropan-2-yl]-7-[(4S)-4-hydroxy-2-oxopyrrolidin-1-yl]-4-oxo-1-(2,4,6-trifluorophenyl)-1,4-dihydro-1,8-naphthyridine-3-carboxamide] | 7 | 93.5 | 
11 | O=C(NC(CC(F)(F)F)C1CC1)c1cn(-c2c(F)cc(F)cc2F)c2nc(N3C[C@@H](O)CC3=O)ccc2c1=O (mixture of isomers) [Example 512, N-[1-Cyclopropyl-3,3,3-trifluoropropyl]-7-[(4S)-4-hydroxy-2-oxopyrrolidin-1-yl]-4-oxo-1-(2,4,6-trifluorophenyl)-1,4-dihydro-1,8-naphthyridine-3-carboxamide] | 10 | 100 | 
12 | CCC(NC(=O)c1cn(-c2c(F)cc(F)cc2F)c2nc(N3C[C@@H](O)CC3=O)ccc2c1=O)C(F)(F)C(F)(F)F (mixture of isomers) [Example 519, 7-[(4S)-4-Hydroxy-2-oxopyrrolidin-1-yl]-4-oxo-N-[1,1,1,2,2-pentafluoropentan-3-yl]-1-(2,4,6-trifluorophenyl)-1,4-dihydro-1,8-naphthyridine-3-carboxamide] | 3 | 96.7 | 
13 | CCC(NC(=O)c1cn(-c2c(F)cc(F)cc2F)c2nc(N3C[C@@H](O)[C@H](O)C3)ccc2c1=O)C(F)(F)C(F)(F)F (mixture of isomers) [Example 522, 7-[(3R,4R)-3,4-Dihydroxypyrrolidin-1-yl]-4-oxo-N-[1,1,1,2,2-pentauoropentan-3-yl]-1-(2,4,6-trifluorophenyl)-1,4-dihydro-1,8-naphthyridine-3-carboxamide] |  |  | 92.8
14 | CC(NC(=O)c1cn(-c2c(F)cc(F)cc2F)c2nc(N3C[C@@H](O)CC3=O)ccc2c1=O)C(F)(F)C(F)(F)F (mixture of isomers) [Example 529, 7-[(4S)-4-Hydroxy-2-oxopyrrolidin-1-yl]-4-oxo-N-[3,3,4,4,4-pentafluorobutan-2-yl]-1-(2,4,6-trifluorophenyl)-1,4-dihydro-1,8-naphthyridine-3-carboxamide] | 6 | 96 | 
15 | O=C(NC(c1ccccc1Cl)C(F)(F)F)c1cn(-c2c(F)cc(F)cc2F)c2nc(N3C[C@@H](O)CC3=O)ccc2c1=O (mixture of isomers) [Example 532, N-[1-(2-Chlorophenyl)-2,2,2-trifluoroethyl]-7-[(4S)-4-hydroxy-2-oxopyrrolidin-1-yl]-4-oxo-1-(2,4,6-trifluorophenyl)-1,4-dihydro-1,8-naphthyridine-3-carboxamide] | 18 | 92 | 

More lines, main results first:

Row | EC50 (M2-GIRK1/4 reporter cells) [nM] | Emax [1] [%] | SMILES | Emax (read-out: Efficiency) [%]
16 | 37 | 99.5 | O=C(NC(CC(F)(F)F)C1CC1)c1cn(-c2c(F)cc(F)cc2F)c2nc(N3C[C@@H](O)[C@H](O)C3)ccc2c1=O (mixture of isomers) [Example 438, N-[1-Cyclopropyl-3,3,3-trifluoropropyl]-7-[(3R,4R)-3,4-dihydroxypyrrolidin-1-yl]-4-oxo-1-(2,4,6-trifluorophenyl)-1,4-dihydro-1,8-naphthyridine-3-carboxamide] | 
17 | 15 | 100 | CC(NC(=O)c1cn(-c2c(F)cc(F)cc2F)c2nc(N3C[C@@H](O)[C@H](O)C3)ccc2c1=O)(C1CC1)C(F)(F)F (mixture of isomers) [Example 441, N-[2-Cyclopropyl-1,1,1-trifluoropropan-2-yl]-7-[(3R,4R)-3,4-dihydroxypyrrolidin-1-yl]-4-oxo-1-(2,4,6-trifluorophenyl)-1,4-dihydro-1,8-naphthyridine-3-carboxamide] | 
18 | 10 | 89 | CC(NC(=O)c1cn(-c2c(F)cc(F)cc2F)c2nc(N3C[C@@H](O)CC3=O)ccc2c1=O)C1CCC1 (mixture of isomers) [Example 471, N-[1-Cyclobutylethyl]-7-[(4S)-4-hydroxy-2-oxopyrrolidin-1-yl]-4-oxo-1-(2,4,6-trifluorophenyl)-1,4-dihydro-1,8-naphthyridine-3-carboxamide] | 
19 | 18 | 98 | CC(NC(=O)c1cn(-c2c(F)cc(F)cc2F)c2nc(N3C[C@@H](O)[C@H](O)C3)ccc2c1=O)C1CCC1 (mixture of isomers) [Example 476, N-[1-Cyclobutylethyl]-7-[(3R,4R)-3,4-dihydroxypyrrolidin-1-yl]-4-oxo-1-(2,4,6-trifluorophenyl)-1,4-dihydro-1,8-naphthyridine-3-carboxamide] | 
20 | 12 | 96.5 | CCC(NC(=O)c1cn(-c2c(F)cc(F)cc2F)c2nc(N3C[C@@H](O)[C@H](O)C3)ccc2c1=O)C(C)C (mixture of isomers) [Example 487, 7-[(3R,4R)-3,4-Dihydroxypyrrolidin-1-yl]-N-[2-methylpentan-3-yl]-4-oxo-1-(2,4,6-trifluorophenyl)-1,4-dihydro-1,8-naphthyridine-3-carboxamide] | 
21 | 9 | 100 | CC(C)C(NC(=O)c1cn(-c2c(F)cc(F)cc2F)c2nc(N3C[C@@H](O)CC3=O)ccc2c1=O)C(F)(F)F (mixture of isomers) [Example 526, 7-[(4S)-4-Hydroxy-2-oxopyrrolidin-1-yl]-4-oxo-N-[1,1,1-trifluoro-3-methylbutan-2-yl]-1-(2,4,6-trifluorophenyl)-1,4-dihydro-1,8-naphthyridine-3-carboxamide] | 

Reference: patent US20190367516A1 (Bayer Pharma Aktiengesellschaft, priority 2015, published 2019)
